These results are taken from patent publication US8278345B2, “Inhibitors of glutaminyl cyclase” (Probiodrug AG, priority 2006, dated 2012).

This assay has as its target hQC (Homo sapiens, UniProt Q16769). Description: Inhibitor assay for glutaminyl cyclase activity (fluorometric, H-Gln-βNA / H-Gln-AMC). The class given is biochemical. An outline of the steps: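 Coupled fluorometric assay at 30 °C with pyroglutamyl aminopeptidase, in Tris/HCl pH 8.0 with EDTA, substrate H-Gln-βNA (0.2 mM; ex/em 320/410 nm) or H-Gln-AMC (ex/em 380/460 nm), initiated by QC. Screening: 4 mM inhibitor, substrate at 1 KM; Ki from progress curves fitted to competitive inhibition.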

Like-named read-outs stand apart in the source and are kept apart here.

Chain of hQC (Q16769 29-361): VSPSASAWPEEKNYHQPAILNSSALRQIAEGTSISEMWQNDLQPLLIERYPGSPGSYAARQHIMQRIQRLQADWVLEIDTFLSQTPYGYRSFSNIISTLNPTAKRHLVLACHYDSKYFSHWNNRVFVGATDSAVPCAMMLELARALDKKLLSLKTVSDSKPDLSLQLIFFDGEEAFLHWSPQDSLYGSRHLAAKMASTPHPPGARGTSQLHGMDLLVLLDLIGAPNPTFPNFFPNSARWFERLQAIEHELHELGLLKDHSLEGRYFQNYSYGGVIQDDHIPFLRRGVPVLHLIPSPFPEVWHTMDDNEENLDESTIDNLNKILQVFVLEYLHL

Take `CC1=C(O)C(=O)N(CCCn2ccnc2)C1c1ccc2[nH]ccc2c1` (stereo not shown) [Compound 26, 3-Hydroxy-1-(3-imidazol-1-yl-propyl)-5-(1H-indol-5-yl)-4-methyl-1,5-dihydro-pyrrol-2-one]: the IC50 (read-out: IC50) came to 40 nM. In the case of `CCCC(=O)C1=C(O)C(=O)N(c2ccc3[nH]cnc3c2)C1CCC` (stereo not shown) [Compound 313, 1-(1H-Benzoimidazol-5-yl)-4-butyryl-3-hydroxy-5-propyl-1,5-dihydro-pyrrol-2-one], the IC50 (read-out: IC50) was 5170 nM. Turning to `CC1=C(O)C(=O)N(c2ccc3[nH]cnc3c2)C1c1c(F)ccc(Cl)c1F` (stereo not shown) [Compound 412, 1-(1H-Benzoimidazol-5-yl)-5-(3-chloro-2,6-difluoro-phenyl)-3-hydroxy-4-methyl-1,5-dihydro-pyrrol-2-one], the IC50 (read-out: IC50) is 4180 nM. As to `CC(C)C1=C(O)C(=O)N(CCCn2ccnc2)C1c1ccccc1O` (stereo not shown) [Compound 60, 3-Hydroxy-5-(2-hydroxy-phenyl)-1-(3-imidazol-1-yl-propyl)-4-isopropyl-1,5-dihydro-pyrrol-2-one], where the note is “read-out: IC50”, the IC50 worked out at 9400 nM. Turning to `O=C1C(O)=C(c2ccc(O)cc2)C(c2cccc(O)c2)N1CCCn1ccnc1` (stereo not shown) [Compound 182, 3-Hydroxy-5-(3-hydroxy-phenyl)-4-(4-hydroxy-phenyl)-1-(3-imidazol-1-yl-propyl)-1,5-dihydro-pyrrol-2-one], the IC50 (read-out: IC50) was determined as 40 nM.

For `CC(C)(C)C(=O)C1=C(O)C(=O)N(c2ccc3[nH]cnc3c2)C1c1cc2ccccc2nc1Cl` (stereo not shown) [Compound 392, 1-(1H-Benzoimidazol-5-yl)-5-(2-chloro-quinolin-3-yl)-4-(2,2-dimethyl-propionyl)-3-hydroxy-1,5-dihydro-pyrrol-2-one], the IC50 (read-out: IC50) was 4450 nM. The same measure, in the same setting: under `CCC1=C(O)C(=O)N(CCCn2ccnc2)C1c1ccco1` (stereo not shown) [Compound 247, 4-Ethyl-5-furan-2-yl-3-hydroxy-1-(3-imidazol-1-yl-propyl)-1,5-dihydro-pyrrol-2-one] stands 1300 nM; under `CC1=C(O)C(=O)N(c2ccc3[nH]cnc3c2)C1c1ccc2nsnc2c1` (stereo not shown) [Compound 380, 1-(1H-Benzoimidazol-5-yl)-5-benzo[c][1,2,5]thiadiazol-5-yl-3-hydroxy-4-methyl-1,5-dihydro-pyrrol-2-one], 1030 nM; under `O=C(C1=C(O)C(=O)N(c2ccc3[nH]cnc3c2)C1)C1CCCCC1` [Compound 441, 1-(1H-Benzoimidazol-5-yl)-4-cyclohexanecarbonyl-3-hydroxy-1,5-dihydro-pyrrol-2-one], 850 nM. Same read-out and setting: under `CCCC(=O)C1=C(O)C(=O)N(c2ccc3[nH]cnc3c2)C1c1ccc2cccc(O)c2n1` (stereo not shown) [Compound 368, 1-(1H-Benzoimidazol-5-yl)-4-butyryl-3-hydroxy-5-(8-hydroxy-quinolin-2-yl)-1,5-dihydro-pyrrol-2-one] stands 4 nM.

With `O=C1C(O)=C(c2ccc(O)cc2)C(C2CCOC2)N1c1ccc2[nH]cnc2c1` (stereo not shown) [Compound 279, 1-(1H-Benzoimidazol-5-yl)-3-hydroxy-4-(4-hydroxy-phenyl)-5-(tetrahydro-furan-3-yl)-1,5-dihydro-pyrrol-2-one], the IC50 (read-out: IC50) worked out at 5800 nM. On the same count and under the same terms, under `CC(C)CC(=O)C1=C(O)C(=O)N(c2ccc3[nH]cnc3c2)C1c1cn(C)c2ccccc12` (stereo not shown) [Compound 278, 1-(1H-Benzoimidazol-5-yl)-3-hydroxy-4-(3-methyl-butyryl)-5-(1-methyl-1H-indol-3-yl)-1,5-dihydro-pyrrol-2-one] stands 5350 nM; under `CCCCCC(=O)C1=C(O)C(=O)N(c2ccc3[nH]cnc3c2)C1c1cccc(C)c1` (stereo not shown) [Compound 411, 1-(1H-Benzoimidazol-5-yl)-4-hexanoyl-3-hydroxy-5-m-tolyl-1,5-dihydro-pyrrol-2-one], 1390 nM. The same measure, in the same setting: under `CCC1C(C(C)=O)=C(O)C(=O)N1c1ccc2[nH]cnc2c1` (stereo not shown) [Compound 439, 4-Acetyl-1-(1H-benzoimidazol-5-yl)-5-ethyl-3-hydroxy-1,5-dihydro-pyrrol-2-one] stands 2740 nM. For the compound `CC1=C(O)C(=O)N(CCCn2ccnc2)C1c1ccc(O)cc1` (stereo not shown) [Compound 52, 3-Hydroxy-5-(4-hydroxy-phenyl)-1-(3-imidazol-1-yl-propyl)-4-methyl-1,5-dihydro-pyrrol-2-one], the half-maximal inhibitory concentration (IC50) (read-out: IC50) is 1300 nM. As to `CCCC1C(C)=C(O)C(=O)N1CCCn1ccnc1` (stereo not shown) [Compound 22, 3-Hydroxy-1-(3-imidazol-1-yl-propyl)-4-methyl-5-propyl-1,5-dihydro-pyrrol-2-one], the half-inhibitory concentration (IC50) (read-out: IC50) was 4900 nM. Same read-out and setting: under `O=C(C1=C(O)C(=O)N(c2ccc3[nH]cnc3c2)C1c1ncc[nH]1)C1CCCCC1` (stereo not shown) [Compound 435, 1-(1H-Benzoimidazol-5-yl)-4-cyclohexanecarbonyl-3-hydroxy-5-(1H-imidazol-2-yl)-1,5-dihydro-pyrrol-2-one] stands 6970 nM; under `CCC1C(C)=C(O)C(=O)N1CCCn1ccnc1` (stereo not shown) [Compound 49, 5-Ethyl-3-hydroxy-1-(3-imidazol-1-yl-propyl)-4-methyl-1,5-dihydro-pyrrol-2-one], 4900 nM; under `CCC1=C(O)C(=O)N(CCCn2ccnc2)C1C1CC1` (stereo not shown) [Compound 246, 5-Cyclopropyl-4-ethyl-3-hydroxy-1-(3-imidazol-1-yl-propyl)-1,5-dihydro-pyrrol-2-one], 1300 nM. Consider `CC1=C(O)C(=O)N(c2ccc3nc[nH]c3c2)C1c1cccc(F)c1F` (stereo not shown) [Compound 467, 1-(1H-benzo[d]imidazol-6-yl)-5-(2,3-difluorophenyl)-3-hydroxy-4-methyl-1H-pyrrol-2(5H)-one], for which the inhibitory constant (Ki) (compound from preparative synthesis, purified) came out at 11.6 nM. The half-maximal inhibitory concentration (IC50) (read-out: IC50) turned out to be 52.6 nM. With `Cc1ccc(C2C(C(C)C)=C(O)C(=O)N2CCCn2ccnc2)o1` (stereo not shown) [Compound 57, 3-Hydroxy-1-(3-imidazol-1-yl-propyl)-4-isopropyl-5-(5-methyl-furan-2-yl)-1,5-dihydro-pyrrol-2-one], the concentration for half-maximal inhibition (IC50) (read-out: IC50) turned out to be 1300 nM. Same read-out and setting: under `Cc1cccc(C2C(c3c[nH]c4ccccc34)=C(O)C(=O)N2c2ccc3[nH]cnc3c2)n1` (stereo not shown) [Compound 385, 1-(1H-Benzoimidazol-5-yl)-3-hydroxy-4-(1H-indol-3-yl)-5-(6-methyl-pyridin-2-yl)-1,5-dihydro-pyrrol-2-one] stands 760 nM; under `O=C1C(O)=C(c2c[nH]c3ccccc23)C(c2cccs2)N1CCCn1ccnc1` (stereo not shown) [Compound 137, 3-Hydroxy-1-(3-imidazol-1-yl-propyl)-4-(1H-indol-3-yl)-5-thiophen-2-yl-1,5-dihydro-pyrrol-2-one], 400 nM; under `O=C1C(O)=C(c2ccccc2)C(c2ncc[nH]2)N1CCCn1ccnc1` (stereo not shown) [Compound 98, 3-Hydroxy-5-(1H-imidazol-2-yl)-1-(3-imidazol-1-yl-propyl)-4-phenyl-1,5-dihydro-pyrrol-2-one], 1300 nM. As for `O=C(C1=C(O)C(=O)N(c2ccc3[nH]cnc3c2)C1c1ccc(Cl)c(Cl)c1)C1CCCCC1` (stereo not shown) [Compound 372, 1-(1H-Benzoimidazol-5-yl)-4-cyclohexanecarbonyl-5-(3,4-dichloro-phenyl)-3-hydroxy-1,5-dihydro-pyrrol-2-one], the half-inhibitory concentration (IC50) was 13.3 nM (compound from preparative synthesis, purified, read-out: IC50 hQC) and 400 nM (read-out: IC50). As for `CCC1=C(O)C(=O)N(CCCn2ccnc2)C1C1=CCCCC1` (stereo not shown) [Compound 238, 5-Cyclohex-1-enyl-4-ethyl-3-hydroxy-1-(3-imidazol-1-yl-propyl)-1,5-dihydro-pyrrol-2-one], where the note is “read-out: IC50”, the half-inhibitory concentration (IC50) was 40 nM.
